# “Also recorded” adds a separate entry of the source. Where a SMILES comes first, the peptide text is derived from it. Where no end group is shown, it is not given here. The star is where a group is joined. Octanoyl = CCCCCCCC(=O)*
# How the values were obtained:
# [1] = system: C57Bl/6 mice primary cell culture; experiment: Trypan blue cell viability assay, protection against H2O2-induced cell death; assay type: cell-based; conditions: for protective action against the damages produced by H2O2 in terms of cell viability: 50 μM H2O2 plus 1 μM peptide, compared to negative control (H2O2)
# Method: The protective effects of ghrelin splice variant against induced cell death, cell viability, of C57Bl/6 mice primary cell culture, was analysed by trypan blue assay, an indirect method based on the dye exclusion of live cells with intact cell membrane.
# Cells were treated with 50 μM H2O2 to induce cell damages and death. The neuroprotective effect of ghrelin splice variant was tested by treating the cells with either H2O2 plus 1 μM ghrelin splice variant, H2O2 plus 1 μM ghrelin or H2O2 plus both peptides. Controls samples were untreated cells.
# SNpc DA neurons [2] = experiment: mEPSC recordings in GHSR1a knockout mice and their WT littermates; assay type: cell-based; conditions: 1 μM, in presence of TTX and bicuculline
# MPTP-mice = experiment: MPTP mouse model of Parkinson's disease; assay type: in vivo; conditions: 10 nmol once-a-day, day -7 to day 10 after MPTP
# Method: In the MPTP model, the bilateral dopaminergic neuronal death of the substantia nigra and dopamine depletion of the striatum is created by i.p. injection of MPTP. Experimental groups:
# • Group 1: 10 Sham-mice treated with vehicle (10 ml/kg) once-a-day starting day-7 and continuing until the end of the study day 10 • Group 2: 10 MPTP-mice treated with vehicle (10 ml/kg) once-a-day starting day-7 and continuing until the end of the study day 10 • Group 3: 10 MPTP-mice treated with Ghrelin SplicVariant (10 nmol) once-a-day starting day-7 and continuing until the end of the study day 10 Ghrelin Splice Variant or vehicle was administered once-a-day immediately before the dark phase, and […] were removed overnight starting seven days prior to MPTP challenge and continued until end-point day 10 after MPTP. Striatal levels of dopamine (DA), […] (DOPAC) and homovanillic acid (HVA) are evaluated 10 days after the injection of MPTP with HPLC. In addition, the selective damage to dopaminergic neurons in the SNc is evaluated with tyrosine hydroxylase (TH) immunoreactivity. Food intake and body weight were monitored daily in all mice administered Ghrelin Splice Variant.
# SNpc DA neurons [3] = experiment: Patch clamp (whole-cell current clamp) recordings of action potentials in brain slices, bath application; assay type: cell-based, mice; conditions: 1 μM
# Method: Brain slices preparation: Brain slices (300 µm) containing the SN, will be cut on a vibratome from 4-6 week old males (n=10 per group). Briefly, animals will be anesthetized with Nembutal (80 mg/kg) and then decapitated. The brains will be rapidly removed and immersed in cold […] oxygenated bath solution (containing (mM): NaCl 150, KCl 2.5, CaCl2 2, MgCl2 2 Hepes 10, and glucose […] with NaOH). After being trimmed to contain only the SN, slices will be transferred to a recording chamber where they are constantly perfused with bath solution at 2 ml/min. DA neurons in the SN are identified by presence of a large Ih current (>100 pA) evoked by hyperpolarizing voltage steps from −50 to −120 mV for 2 s (22). This approach identifies dopaminergic cells with >90% accuracy. In brain slices, whole-cell current clamp will be used to observe spontaneous action potentials. Slices will be maintained at 330 C and perfused continuously with ASCF (bubbled with 5% CO2 and 95% O2) containing (in mM): NaCl, 124; KCl, 3; CaCl2, 2; MgCl2, 2; NaH2PO4, 1.23; NaHCO3, 26; glucose, 10; pH 7.4 with NaOH. Ghrelin Splice Variant will be applied to the recording chamber via bath application.The pipette solution containes (mM): Gluconic Acid 140, CaCl2, MgCl2 2, EGTA 1, HEPES 10, Mg-ATP 4, and Na2-GTP 0.5, pH 7.3 with KOH. To further explore the mechanism of Ghrelin Splice Variant-mediated effect on action potentials in DA neurons, we will analyze the effect of Ghrelin Splice Variant on action potential frequency either in the presence of ionotropic glutamate receptor antagonists CNQX (10 µM) and APS (50 µM) in all solutions, or in the presence of bicuculine (30 µM; to block diminish GABA effects) in all solutions. Analysis: All data will be sampled at 3-10 kHz and […] at 1-3 kHz with an Apple Macintosh computer using Axograph 4.9 (Axon Instruments). Electrophysiological data will be analyzed with Axograph 4.9 (Axon Instruments) and plotted with Igor Pro software (WaveMetrics, Lake Oswego, Oreg., USA). To complement, the electron microscopic measurements of synapses, we will also analyze mEPSC and mIPSC of SN DA neurons. Mice (C57BL/J6; n=10) between the ages of 4-6 weeks of age will be injected with Ghrelin Splice Variant (30 μg in 0.3 ml) or vehicle ip at 09:00 hrs. Two hours later, animals will be sacrificed under neinbutal anesthesia and their brains collected as described above. For the recording of mEPSCs and IPSCs, SN DA cells will be patched with pipettes with a tip resistance of 4-6 MΩ and partially compensated by the amplifier. The pipette will be filled with a solution containing the following (mM): KMeSO, 145 (mEPSC) or KCL, 145 (mIPSC); MgCl2, 2; HEPES, 10; Mg-ATP, 2.; Nat-GTP, 0.3; and KOH to adjust pH to 7.3. mEPSC recordings will be achieved under the prescence of TTX and bicucullin, whereas mIPSC will be monitored under the presence of TTX, AP5 and CNQX. The frequency and amplitude of mEPSC and IPSC will be recorded as described previously. Differences in the frequency of mEPSCs and mIPSCs of DA cells from Ghrelin Splice Variant and saline treated animals will be compared using unpaired t-tests with the critical level set at α=0.05). […] N=number of cells recorded.
# SN DA neurons = experiment: mEPSC and mIPSC recordings of SN DA neurons after treatment of WT mice; assay type: in vivo; conditions: compared with saline control, n=6 cells
# Method: Brain slices preparation: Brain slices (300 µm) containing the SN, will be cut on a vibratome from 4-6 week old males (n=10 per group). Briefly, animals will be anesthetized with Nembutal (80 mg/kg) and then decapitated. The brains will be rapidly removed and immersed in cold […] oxygenated bath solution (containing (mM): NaCl 150, KCl 2.5, CaCl2 2, MgCl2 2 Hepes 10, and glucose […] with NaOH). After being trimmed to contain only the SN, slices will be transferred to a recording chamber where they are constantly perfused with bath solution at 2 ml/min. DA neurons in the SN are identified by presence of a large Ih current (>100 pA) evoked by hyperpolarizing voltage steps from −50 to −120 mV for 2 s (22). This approach identifies dopaminergic cells with >90% accuracy. […] Electrophysiological data will be analyzed with Axograph 4.9 (Axon Instruments) and plotted with Igor Pro software (WaveMetrics, Lake Oswego, Oreg., USA). […] The pipette will be filled with a solution containing the following (mM): KMeSO, 145 (mEPSC) or KCL, 145 (mIPSC); MgCl2, 2; HEPES, 10; Mg-ATP, 2.; Nat-GTP, 0.3; and KOH to adjust pH to 7.3. mEPSC recordings will be achieved under the prescence of TTX and bicucullin, whereas mIPSC will be monitored under the presence of TTX, AP5 and CNQX. The frequency and amplitude of mEPSC and IPSC will be recorded as described previously. […] N=number of cells recorded.
# growth hormone = experiment: GH release after subcutaneous bolus injection (growth hormone ELISA); assay type: in vivo, mice; conditions: 20 μg subcutaneous bolus; 10 minutes after administration
# Method: Acylated ghrelin splice variants (20 μg) or the Vehicle (1.6% mannitol) were administered by a subcutaneous bolus injection (Corresponding to 0.3 μmol/kg) to 5 mice each. Blood was sampled 10 and 20 min after injection. Serum samples were stored at −70° C. and analyzed by the RAT/MOUSE GROWTH HORMONE ELISA KIT 96-Well Plate (Cat. EZRMGH-45K) (Millipore Corporation, Billerica, Mass., USA). Results: The serum […] growth hormone concentration 10 minutes after subcutaneous administration of acylated ghrelin splice variant or the Vehicle was 2-14-fold higher in the ghrelin splice variant group in comparison to the vehicle group.
# [4] = Pharmacokinetics after subcutaneous administration, plasma LC/MS/MS; assay type: in vivo, Sprague-Dawley rats; conditions: Sprague-Dawley, rat; for half-life: across dose groups; for AUC / AUC(0-inf): SC; for AUC: high dose (10 mg/kg)
# Method: Subcutaneous administration of ghrelin splice variants was performed at three dose levels of 0.5, 2.5 and 10 mg/kg corresponding to concentrations of 0.1, 0.5 and 2 mg/ml, respectively, and at a constant volume dosage of 5 ml/kg. Intravenous injection was performed at one dose level of 0.5 mg/kg corresponding to a concentration of 0.1 mg/ml and a constant volume dosage of 5 ml/kg as well. The study comprised 9 male and 9 female Sprague-Dawley™ (SD™) rats per dose level and route of administration.
# Bleeding sampling design was confined to 9 bleeding time points for each dose level: pre-dosing, 5, 15, 30, 60 and 90 min, 3, 5 and 24 hrs, post-dosing. Each group was divided into 3 sub-groups, each being assigned 3 specific bleeding time points, in order to receive 3 individual samples/time point/group (total of 27 individual samples/group). […] Whole blood samples were kept on ice from the time of blood collection until the time of centrifugation. The obtained plasma samples were flash frozen in liquid nitrogen and kept on dry ice until removal to −70° C.
# Concentrations of the Test Item in plasma were determined by LC/MS/MS (liquid chromatography/mass spectrometry/mass spectrometry). Pharmacokinetic analysis of Ghrelin Splice Variant was based on mean plasma concentration time profiles for each dose group as obtained by Non-compartmental Pharmacokinetic analysis, generated by the use of the computer software: “PK Solutions 2.0” (Summit Research Services, Colo., USA).
# [5] = cited from earlier work
# [6] = listed as Ghrelin splice variant
compound,measurement,setting,value
"OO [H2O2, reference compound]",cell survival,[1]; 50 μM H2O2 alone,50%
CCCCCCCC(=O)OC[C@H](NC(=O)[C@H](CO)NC(=O)CN)C(=O)N[C@@H](Cc1ccccc1)C(=O)N[C@@H](CC(C)C)C(=O)N[C@@H](CO)C(=O)N1CCC[C@H]1C(=O)N[C@@H](CCC(=O)O)C(=O)N[C@@H](Cc1c[nH]cn1)C(=O)N[C@@H](CCC(N)=O)C(=O)N[C@@H](CCCNC(=N)N)C(=O)N[C@H](C(=O)N[C@@H](CCC(N)=O)C(=O)N[C@H](C(=O)N[C@@H](CCCNC(=N)N)C(=O)N1CCC[C@H]1C(=O)N1CCC[C@H]1C(=O)N[C@@H](Cc1c[nH]cn1)C(=O)N[C@@H](CCCCN)C(=O)N[C@@H](C)C(=O)N1CCC[C@H]1C(=O)N[C@@H](Cc1c[nH]cn1)C(=O)O)C(C)C)C(C)C [Ghrelin Splice Variant] (H-GSS(Octanoyl)FLSPEHQRVQVRPPHKAPH-OH),protective action against the damages produced by H2O2 in terms of cell viability,[1]; [6],effective protective action
same,protective action against the damages produced by H2O2 in terms of cell viability,[1]; listed as ghrelin splice variant,statistically significant effective protective action; also recorded: greater than ghrelin treatment
same,mEPSC frequency,"SNpc DA neurons [2]; GHSR1a knockout mice, n=9 cells",27.3+/−2.8 per min
same,mEPSC frequency,"SNpc DA neurons [2]; WT animals, n=31 cells",98.1+/−24.7 per min
same,MPTP-induced nigrostriatal DA damage (loss of DA neurons),MPTP-mice,attenuates MPTP-induced nigrostriatal PA damage
same,cumulative weight gain / recovery after MPTP treatment,MPTP-mice,managed to recover after the MPTP treatment
same,action potential firing,SNpc DA neurons [3],increment in AP firing
same,depolarization,SNpc DA neurons [3],about 10 mV
same,duration of effect after washout,SNpc DA neurons [3],20 min
same,action potential firing,SNpc DA neurons [3]; [6],increment in action potential firing
same,duration of effect after washout,SNpc DA neurons [3]; [6],at least 20 minutes
same,frequency of mEPSCs,SN DA neurons,67.2 ± 3.1
same,frequency of mIPSCs,SN DA neurons,60.5 ± 8.9
same,serum and brain growth hormone concentration in comparison to the vehicle group,growth hormone,2-14 fold
same,half-life,"[4]; subcutaneous, female rats",10.7 to 28.9 min
same,half-life,"[4]; subcutaneous, male rats",17.4 to 26.4 min
same,Tmax,"[4]; both sexes, subcutaneous, post-dosing, all dose groups",5 min
same,AUC,"[4]; female, females",818 ng·h/mL
same,AUC(0-inf),"[4]; female, low dose (0.5 mg/kg), females",86.7 ng·h/mL
same,AUC(0-inf),"[4]; female, mid dose (2.5 mg/kg), females",347 ng·h/mL
same,AUC,"[4]; male, males",1320 ng·h/mL
same,AUC(0-inf),"[4]; male, low dose (0.5 mg/kg), males",102 ng·h/mL
same,AUC(0-inf),"[4]; male, mid dose (2.5 mg/kg), males",313 ng·h/mL
"Ghrelin: 28 amino acid peptide bearing an n-octanoyl side chain on the third serine (GSS(Octanoyl)FLSPEHQRVQQRKESKKPPAKLQPR; UniProt Q9UBU3 24-51, looked up) [reference compound]",protective action against the damages produced by H2O2 in terms of cell viability,[1],statistically significant
same,protective action against the damages produced by H2O2 in terms of cell viability,[1]; listed as ghrelin,statistically significant effective protective action
same,increase of food intake,"[5]; infusion for 90 minutes, cancer cachexia patients",30%
same,increase of energy intake,[5]; subcutaneous injection of 3.6 nmol/kg prior to a meal,27%

# From patent publication US10526383B2, “Ghrelin splice variant for treating neuronal damage, neurodegenerative disease, parkinsons disease, alzheimers disease, and/or depression” (priority 2013, dated 2020)
